Results: patent US6737383B1, “Herbicidal oxadiazolidines” (priority 1999, dated 2004)

Assays:
bedstraw = assay: Test B pre/postemergence bedstraw; format: in vivo, Galium aparine
Method in brief: (§1)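 Herbicidal effect was estimated by eye on a ten-point control scale after plants spent twelve to sixteen days in a greenhouse following soil or foliar treatment. Foliar sprays targeted plants at one to four leaves; all doses were formulated in a non-phytotoxic solvent with surfactant.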

blackgrass = assay: Test B pre/postemergence blackgrass; format: in vivo, Alopecurus myosuroides
Method in brief: as §1

surinam grass = assay: Test B pre/postemergence surinam grass; format: in vivo, Brachiaria decumbens
Method in brief: as §1

cocklebur = assay: Test B pre/postemergence cocklebur; format: in vivo, Xanthium strumarium
Method in brief: as §1

corn = assay: Test B pre/postemergence corn; format: in vivo, Zea mays
Method in brief: as §1

giant foxtail = assay: Test B pre/postemergence giant foxtail; format: in vivo, Setaria faberii
Method in brief: as §1

morningglory = assay: Test B pre/postemergence morningglory; format: in vivo, Ipomoea hederacea
Method in brief: as §1

pigweed = assay: Test B pre/postemergence pigweed; format: in vivo, Amaranthus retroflexus
Method in brief: as §1

rape = assay: Test B pre/postemergence rape; format: in vivo, Brassica napus
Method in brief: as §1

sugar beet = assay: Test B pre/postemergence sugar beet; format: in vivo, Beta vulgaris
Method in brief: as §1

velvetleaf = assay: Test B pre/postemergence velvetleaf; format: in vivo, Abutilon theophrasti
Method in brief: as §1

purple nutsedge = assay: Test B pre/postemergence purple nutsedge; format: in vivo, Cyperus rotundus
Method in brief: as §1

rice = assay: Test B flood test rice; format: in vivo, Oryza sativa
Method in brief: (§2)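 Flood test on plants grown to the 2-leaf stage; treated plants kept in greenhouse twelve to sixteen days, then visually rated against controls on a 0 (no effect) to 10 (complete control) scale.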

duck salad = assay: Test B flood test duck salad; format: in vivo, Heteranthera limosa
Method in brief: as §2

bamyardgrass = assay: Test B flood test barnyardgrass; format: in vivo, Echinochloa crus-galli
Method in brief: as §2

[1] = Postemergence, Rate 62 g/ha, scale 0 to 10, 0 is no effect, 10 is complete control
[2] = Preemergence, Rate 62 g/ha, scale 0 to 10 (0 no effect, 10 complete control)
[3] = Preemergence, Rate 125 g/ha, scale of 0 to 10 where 0 is no effect and 10 is complete control
[4] = Preemergence, Rate 250 g/ha, scale 0 to 10 (0 no effect, 10 complete control)
[5] = Preemergence, Rate 500 g/ha, scale of 0 to 10 where 0 is no effect and 10 is complete control
[6] = Postemergence, Rate 125 g/ha, scale of 0 to 10 where 0 is no effect and 10 is complete control
[7] = Postemergence, Rate 250 g/ha, scale of 0 to 10, 0 is no effect, 10 is complete control
[8] = Postemergence, Rate 500 g/ha, scale of 0 to 10 where 0 is no effect and 10 is complete control
[9] = Rate 62 g/ha, flood test species, Pre-emergence, visual evaluation after twelve to sixteen days
[10] = Rate 125 g/ha, under heading Pre-emergence, flood test species, visual evaluation after twelve to sixteen days
[11] = Rate 250 g/ha, Pre-emergence (flood test species), scale 0 to 10, 0 is no effect, 10 is complete control
[12] = Rate 500 g/ha, Pre-emergence section of Table B, 0 to 10 scale (0 no effect, 10 complete control)

SMILES: COCCn1c(=O)on(C(=O)N(c2ccc(F)cc2F)C(C)C)c1=O [Compound 628]
- Plant response rating, Bedstraw (bedstraw; [1]): 0
- Bedstraw plant response rating (bedstraw; [2]): 6
- Bedstraw plant response rating (bedstraw; [3]): 7
- Plant response rating, Bedstraw (bedstraw; [4]): 10
- Plant response rating, Bedstraw (bedstraw; [5]): 10
- Plant response rating, Blackgrass (blackgrass; [1]): 6
- Plant response rating, Blackgrass (blackgrass; [6]): 8
- Blackgrass plant response rating (blackgrass; [7]): 9
- Plant response rating, Blackgrass (blackgrass; [8]): 9
- Blackgrass plant response rating (blackgrass; [2]): 6
- Blackgrass plant response rating (blackgrass; [3]): 9
- Plant response rating, Blackgrass (blackgrass; [4]): 10
- Plant response rating, Blackgrass (blackgrass; [5]): 10
- Plant response rating, B. signalgrass (surinam grass; [1]): 2
- Plant response rating, B. signalgrass (surinam grass; [6]): 8
- B. signalgrass plant response rating (surinam grass; [7]): 8
- Plant response rating, B. signalgrass (surinam grass; [8]): 8
- B. signalgrass plant response rating (surinam grass; [2]): 3
- B. signalgrass plant response rating (surinam grass; [3]): 7
- Plant response rating, B. signalgrass (surinam grass; [4]): 8
- Plant response rating, B. signalgrass (surinam grass; [5]): 10
- Plant response rating, Cocklebur (cocklebur; [1]): 0
- Plant response rating, Cocklebur (cocklebur; [6]): 1
- Cocklebur plant response rating (cocklebur; [7]): 6
- Plant response rating, Cocklebur (cocklebur; [8]): 7
- Cocklebur plant response rating (cocklebur; [2]): 2
- Cocklebur plant response rating (cocklebur; [3]): 3
- Plant response rating, Cocklebur (cocklebur; [4]): 4
- Plant response rating, Cocklebur (cocklebur; [5]): 7
- Plant response rating, Corn (corn; [1]): 0
- Plant response rating, Corn (corn; [6]): 6
- Corn plant response rating (corn; [7]): 7
- Plant response rating, Corn (corn; [8]): 7
- Corn plant response rating (corn; [2]): 3
- Corn plant response rating (corn; [3]): 6
- Plant response rating, Corn (corn; [4]): 7
- Plant response rating, Corn (corn; [5]): 9
- Plant response rating, Giant foxtail (giant foxtail; [1]): 8
- Plant response rating, Giant foxtail (giant foxtail; [6]): 9
- Giant foxtail plant response rating (giant foxtail; [7]): 9
- Plant response rating, Giant foxtail (giant foxtail; [8]): 9
- Giant foxtail plant response rating (giant foxtail; [2]): 10
- Giant foxtail plant response rating (giant foxtail; [3]): 10
- Plant response rating, Giant foxtail (giant foxtail; [4]): 10
- Plant response rating, Giant foxtail (giant foxtail; [5]): 10
- Plant response rating, Morningglory (morningglory; [1]): 1
- Plant response rating, Morningglory (morningglory; [6]): 2
- Morningglory plant response rating (morningglory; [7]): 2
- Plant response rating, Morningglory (morningglory; [8]): 2
- Morningglory plant response rating (morningglory; [2]): 5
- Morningglory plant response rating (morningglory; [3]): 5
- Plant response rating, Morningglory (morningglory; [4]): 5
- Plant response rating, Morningglory (morningglory; [5]): 7
- Plant response rating, Redroot pigweed (pigweed; [1]): 3
- Plant response rating, Redroot pigweed (pigweed; [6]): 3
- Redroot pigweed plant response rating (pigweed; [7]): 7
- Redroot pigweed plant response rating (pigweed; [2]): 8
- Redroot pigweed plant response rating (pigweed; [3]): 9
- Plant response rating, Redroot pigweed (pigweed; [4]): 9
- Plant response rating, Redroot pigweed (pigweed; [5]): 10
- Plant response rating, Rape (rape; [1]): 0
- Plant response rating, Rape (rape; [6]): 0
- Rape plant response rating (rape; [7]): 3
- Plant response rating, Rape (rape; [8]): 6
- Rape plant response rating (rape; [2]): 0
- Rape plant response rating (rape; [3]): 2
- Plant response rating, Rape (rape; [4]): 4
- Plant response rating, Rape (rape; [5]): 9
- Plant response rating, Sugarbeets (sugar beet; [1]): 0
- Plant response rating, Sugarbeets (sugar beet; [6]): 0
- Sugarbeets plant response rating (sugar beet; [7]): 3
- Sugarbeets plant response rating (sugar beet; [2]): 3
- Sugarbeets plant response rating (sugar beet; [3]): 4
- Plant response rating, Sugarbeets (sugar beet; [4]): 7
- Plant response rating, Sugarbeets (sugar beet; [5]): 7
- Plant response rating, Velvetleaf (velvetleaf; [1]): 6
- Plant response rating, Velvetleaf (velvetleaf; [6]): 6
- Velvetleaf plant response rating (velvetleaf; [7]): 8
- Velvetleaf plant response rating (velvetleaf; [2]): 7
- Plant response rating, Velvetleaf (velvetleaf; [4]): 9
- Plant response rating, Velvetleaf (velvetleaf; [5]): 10
- Plant response rating, Nutsedge (purple nutsedge; [1]): 0
- Nutsedge plant response rating (purple nutsedge; [2]): 3
- Nutsedge plant response rating (purple nutsedge; [3]): 6
- Plant response rating, Nutsedge (purple nutsedge; [4]): 6
- Plant response rating, Nutsedge (purple nutsedge; [5]): 9
- Plant response rating, Rice (0 to 10 scale, 0 is no effect, 10 is complete control) (rice; [9]): 0
- Rice plant response rating (0 to 10 scale, 0 is no effect, 10 is complete control) (rice; [10]): 0
- Rice plant response rating (rice; [11]): 0
- Rice plant response rating (rice; [12]): 0
- Plant response rating, Ducksalad (0 to 10 scale, 0 is no effect, 10 is complete control) (duck salad; [9]): 0
- Ducksalad plant response rating (0 to 10 scale, 0 is no effect, 10 is complete control) (duck salad; [10]): 0
- Ducksalad plant response rating (duck salad; [11]): 0
- Ducksalad plant response rating (duck salad; [12]): 0
- Plant response rating, Barnyardgrass (0 to 10 scale, 0 is no effect, 10 is complete control) (bamyardgrass; [9]): 0
- Barnyardgrass plant response rating (0 to 10 scale, 0 is no effect, 10 is complete control) (bamyardgrass; [10]): 0
- Barnyardgrass plant response rating (bamyardgrass; [11]): 0
- Barnyardgrass plant response rating (bamyardgrass; [12]): 0
